# Laboratory results reported in ChEMBL document CHEMBL5104198, “Probing Factor Xa Protein-Ligand Interactions: Accurate Free Energy Calculations and Experimental Validations of Two Series of High-Affinity Ligands” (J Med Chem, 2022).
# Biological target: T1, Coagulation factor X (Homo sapiens, UniProt P00742)
# Assay: Inhibition of human fXa at 100 uM using Cbz-D-Arg-Gly-L-Arg-pNA as substrate preincubated for 30 mins followed by substrate addition and measured after 60 mins by […] method relative to control
# Details: time 90.0 min
# T1 sequence (P00742 41-179 limits assumed): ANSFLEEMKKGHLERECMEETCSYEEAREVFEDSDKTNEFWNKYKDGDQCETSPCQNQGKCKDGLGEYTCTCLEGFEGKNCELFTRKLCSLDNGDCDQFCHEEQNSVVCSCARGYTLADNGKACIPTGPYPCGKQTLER
# T1 sequence (P00742 235-488 limits assumed): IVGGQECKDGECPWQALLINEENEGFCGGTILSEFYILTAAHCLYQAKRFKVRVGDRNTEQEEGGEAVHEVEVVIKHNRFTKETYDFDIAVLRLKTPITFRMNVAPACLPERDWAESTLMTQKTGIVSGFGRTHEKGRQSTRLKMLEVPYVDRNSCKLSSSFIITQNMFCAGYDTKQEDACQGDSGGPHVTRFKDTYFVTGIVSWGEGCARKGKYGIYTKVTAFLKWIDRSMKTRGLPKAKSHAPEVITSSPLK
row,Structure (SMILES),inhibition [%]
1,CC(C)N1CCC(NC(=O)c2ccn(CC(=O)Nc3ccc(Cl)cc3)c2)CC1,66

# Biological target: T1, Coagulation factor X
# Assay: Inhibition of human fXa assessed as inhibition constant using Cbz-D-Arg-Gly-L-Arg-pNA as substrate preincubated for 30 mins followed by substrate addition and measured after 60 mins by […] method
# Details: not given
row,Structure (SMILES),Ki [nM]
1,CC(C)N1CCC(NC(=O)c2cn(Cc3cc(-c4ccc(Cl)s4)on3)c3ccccc23)CC1,241
2,CC(C)N1CCC(NC(=O)c2nc3ccccc3n2Cc2cc(-c3ccc(Cl)s3)on2)CC1,0.5
3,CC(C)N1CCC(NC(=O)c2nc3ccccc3n2CC(=O)Nc2ccc(Cl)cc2)CC1,6
4,C#Cc1ccc(NC(=O)Cn2c(C(=O)NC3CCN(C(C)C)CC3)cc3ccccc32)cc1,49
5,CC(C)N1CCC(NC(=O)c2cc3cccnc3n2Cc2cc(-c3ccc(Cl)s3)on2)CC1,4
6,CC(C)N1CCC(NC(=O)c2cc3ccccc3n2CC(=O)Nc2ccc(I)cc2)CC1,7
7,Cc1ccc(NC(=O)Cn2c(C(=O)NC3CCN(C(C)C)CC3)cc3ccccc32)cc1,56
8,CC(C)N1CCC(NC(=O)c2nn(CC(=O)Nc3ccc(Cl)cc3)c3ccccc23)CC1,1740
9,CC(C)N1CCC(NC(=O)c2cc3ccccc3n2CC(=O)Nc2ccc(F)cc2)CC1,63
10,CC(C)N1CCC(NC(=O)c2c3ccccc3nn2Cc2cc(-c3ccc(Cl)s3)on2)CC1,8
11,CC(C)N1CCC(NC(=O)c2cc3ccccc3n2Cc2cc(-c3ccc(F)s3)on2)CC1,70
12,CC(C)N1CCC(NC(=O)c2cn(CC(=O)Nc3ccc(Cl)cc3)c3ncccc23)CC1,2930
13,CC(C)N1CCC(NC(=O)c2ccnn2Cc2cc(-c3ccc(Cl)s3)on2)CC1,52
14,CC(C)N1CCC(NC(=O)c2cc3cccnc3n2CC(=O)Nc2ccc(Cl)cc2)CC1,11
15,CC(C)N1CCC(NC(=O)c2cc3ccccc3n2Cc2cc(-c3cccs3)on2)CC1,162
16,CC(C)N1CCC(NC(=O)c2cn(CC(=O)Nc3ccc(Cl)cc3)cn2)CC1,20500
17,CC(C)N1CCC(NC(=O)c2cc3ccccc3n2CC(=O)Nc2ccccc2)CC1,204
18,CC(C)N1CCC(NC(=O)c2nn(Cc3cc(-c4ccc(Cl)s4)on3)c3ccccc23)CC1,9
19,CC(C)N1CCC(NC(=O)c2cc3ccccc3n2Cc2cc(-c3ccc(I)s3)on2)CC1,188
20,CC(C)N1CCC(NC(=O)c2cn(Cc3cc(-c4ccc(Cl)s4)on3)cn2)CC1,14800
21,CC(C)N1CCC(NC(=O)c2cn(CC(=O)Nc3ccc(Cl)cc3)c3ccccc23)CC1,5120
22,CC(C)N1CCC(NC(=O)c2cn(Cc3cc(-c4ccc(Cl)s4)on3)c3ncccc23)CC1,65
23,CC(C)N1CCC(NC(=O)c2cc3ccccc3n2Cc2cc(-c3ccc(Br)s3)on2)CC1,12
24,CC(C)N1CCC(NC(=O)c2ccn(Cc3cc(-c4ccc(Cl)s4)on3)c2)CC1,1240
25,CC(C)N1CCC(NC(=O)c2ccn(Cc3cc(-c4ccc(Cl)s4)on3)n2)CC1,37
26,CC(C)N1CCC(NC(=O)c2ccn(CC(=O)Nc3ccc(Cl)cc3)n2)CC1,204
27,CC(C)N1CCC(NC(=O)c2cccn2CC(=O)Nc2ccc(Cl)cc2)CC1,51
28,C#Cc1ccc(-c2cc(Cn3c(C(=O)NC4CCN(C(C)C)CC4)cc4ccccc43)no2)s1,13
29,Cc1ccc(-c2cc(Cn3c(C(=O)NC4CCN(C(C)C)CC4)cc4ccccc43)no2)s1,55
30,CC(C)N1CCC(NC(=O)c2cccn2Cc2cc(-c3ccc(Cl)s3)on2)CC1,57
